# Source: PMC10417023, “Imidazole-4-N-acetamide Derivatives as a Novel Scaffold for Selective Targeting of Cyclin Dependent Kinases” (Cancers, 2023)
# Like-named read-outs stand apart in the source and are kept apart here.
# Legend:
# Assay in all cases: […]-ATP radiometric filter-binding kinase assay
# Assay type in all cases: biochemical
# CDK2/cyclin E = molecular target: T1, CDK2/cyclin E (Homo sapiens, UniProt P24941)
# T1 construct: purified CDK/cyclin complex; with G1/S-specific cyclin-E1
# CDK1/cyclin E = molecular target: T2, CDK1/cyclin E (Homo sapiens, UniProt P06493)
# T2 construct: purified CDK/cyclin complex; with G1/S-specific cyclin-E1
# T2 sequence (P06493 whole entry): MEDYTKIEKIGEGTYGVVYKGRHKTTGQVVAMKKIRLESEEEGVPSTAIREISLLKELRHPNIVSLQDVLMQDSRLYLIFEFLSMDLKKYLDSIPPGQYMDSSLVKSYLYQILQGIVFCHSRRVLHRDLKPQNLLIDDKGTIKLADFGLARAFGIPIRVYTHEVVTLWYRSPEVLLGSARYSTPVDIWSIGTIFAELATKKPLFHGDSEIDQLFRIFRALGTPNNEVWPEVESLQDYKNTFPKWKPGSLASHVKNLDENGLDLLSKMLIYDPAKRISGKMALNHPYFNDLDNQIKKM
# T2 sequence (P24864 whole entry partner): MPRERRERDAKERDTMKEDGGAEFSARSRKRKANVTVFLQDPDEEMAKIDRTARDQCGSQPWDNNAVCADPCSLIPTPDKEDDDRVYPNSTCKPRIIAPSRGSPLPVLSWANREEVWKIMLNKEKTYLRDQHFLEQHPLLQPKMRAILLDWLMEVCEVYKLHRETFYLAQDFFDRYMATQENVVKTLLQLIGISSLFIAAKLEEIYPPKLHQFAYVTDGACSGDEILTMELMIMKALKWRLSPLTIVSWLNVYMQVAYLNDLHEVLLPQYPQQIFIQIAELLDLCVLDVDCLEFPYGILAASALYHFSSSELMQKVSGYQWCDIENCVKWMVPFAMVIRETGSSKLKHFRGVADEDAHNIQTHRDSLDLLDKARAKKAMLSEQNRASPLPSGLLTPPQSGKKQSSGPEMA
# CDK5/p35 = molecular target: T3, CDK5/p35 (Homo sapiens, UniProt Q00535)
# T3 construct: purified CDK5/p35 complex
# T3 sequence (Q00535 whole entry): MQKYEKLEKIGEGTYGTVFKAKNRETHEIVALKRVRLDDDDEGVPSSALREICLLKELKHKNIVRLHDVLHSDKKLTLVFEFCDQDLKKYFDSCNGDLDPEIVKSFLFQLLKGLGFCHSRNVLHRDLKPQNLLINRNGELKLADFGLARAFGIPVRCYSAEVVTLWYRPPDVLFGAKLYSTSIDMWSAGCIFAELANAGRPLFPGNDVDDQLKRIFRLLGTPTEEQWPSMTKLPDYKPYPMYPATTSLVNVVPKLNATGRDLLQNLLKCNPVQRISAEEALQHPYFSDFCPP
# T3 sequence (Q15078 2-307 partner): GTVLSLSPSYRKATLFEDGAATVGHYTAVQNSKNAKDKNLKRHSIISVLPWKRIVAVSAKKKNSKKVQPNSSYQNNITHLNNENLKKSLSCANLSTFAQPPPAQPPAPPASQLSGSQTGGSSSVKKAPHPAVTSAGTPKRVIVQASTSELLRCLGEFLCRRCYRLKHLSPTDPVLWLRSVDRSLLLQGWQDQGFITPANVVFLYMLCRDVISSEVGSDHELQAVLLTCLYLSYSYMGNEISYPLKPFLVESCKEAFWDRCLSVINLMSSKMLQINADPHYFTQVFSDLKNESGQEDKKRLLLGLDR
# CDK9/cyclin K = molecular target: T4, CDK9/cyclin K (Homo sapiens, UniProt P50750)
# T4 construct: purified CDK9/cyclin K complex; with Cyclin-K
# T4 sequence (P50750 whole entry): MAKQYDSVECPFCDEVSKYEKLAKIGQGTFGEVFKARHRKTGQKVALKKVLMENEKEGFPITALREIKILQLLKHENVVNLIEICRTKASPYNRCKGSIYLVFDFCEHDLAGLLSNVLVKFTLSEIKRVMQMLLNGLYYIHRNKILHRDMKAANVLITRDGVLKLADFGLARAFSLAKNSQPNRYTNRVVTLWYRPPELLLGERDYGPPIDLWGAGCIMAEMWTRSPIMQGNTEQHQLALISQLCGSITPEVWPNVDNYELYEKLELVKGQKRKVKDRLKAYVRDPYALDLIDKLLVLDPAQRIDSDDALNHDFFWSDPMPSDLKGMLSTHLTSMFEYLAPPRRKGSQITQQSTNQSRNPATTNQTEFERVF
# T4 sequence (O75909 whole entry partner): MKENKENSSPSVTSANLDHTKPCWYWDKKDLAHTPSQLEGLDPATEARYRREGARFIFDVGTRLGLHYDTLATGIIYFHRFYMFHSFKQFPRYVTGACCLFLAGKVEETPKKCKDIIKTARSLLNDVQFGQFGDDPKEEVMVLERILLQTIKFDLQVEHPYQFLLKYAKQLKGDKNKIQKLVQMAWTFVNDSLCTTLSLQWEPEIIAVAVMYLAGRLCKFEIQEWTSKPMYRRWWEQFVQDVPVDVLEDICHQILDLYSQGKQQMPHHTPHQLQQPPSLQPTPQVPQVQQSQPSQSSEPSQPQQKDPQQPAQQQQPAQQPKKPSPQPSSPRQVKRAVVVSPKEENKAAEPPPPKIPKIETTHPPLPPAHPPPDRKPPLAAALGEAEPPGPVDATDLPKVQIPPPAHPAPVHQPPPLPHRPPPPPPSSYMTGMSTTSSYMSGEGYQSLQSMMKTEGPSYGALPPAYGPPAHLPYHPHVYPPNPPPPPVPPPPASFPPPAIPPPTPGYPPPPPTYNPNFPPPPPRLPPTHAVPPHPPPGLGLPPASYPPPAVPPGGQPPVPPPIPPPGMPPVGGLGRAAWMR
smiles,measurement,setting,value
"CC(C)n1cnc(NC(=O)Cc2ccccn2)c1 [compound 4, Compound 4]",IC50,CDK2/cyclin E; read-out: Compound 4,270 nM
same,IC50,CDK1/cyclin E; read-out: Compound 4,6200 nM
same,IC50,CDK5/p35; read-out: Compound 4,20000 nM
same,IC50,CDK9/cyclin K; read-out: Compound 4,880 nM
"CC(C)n1cnc(NC(=O)Cc2ccccc2O)c1 [compound 2, Compound 2]",IC50,CDK2/cyclin E; read-out: Compound 2,160 nM
same,IC50,CDK1/cyclin E; read-out: Compound 2,720 nM
same,IC50,CDK5/p35; read-out: Compound 2,880 nM
same,IC50,CDK9/cyclin K; read-out: Compound 2,1000 nM
"CC(C(=O)Nc1cn(C(C)C)cn1)c1ccccc1 (racemic) [compound 3, Compound 3]",IC50,CDK2/cyclin E; read-out: Compound 3,1200 nM
same,IC50,CDK1/cyclin E; read-out: Compound 3,30000 nM
same,IC50,CDK5/p35; read-out: Compound 3,79000 nM
same,IC50,CDK9/cyclin K; read-out: Compound 3,4300 nM
"CC(C)n1cnc(NC(=O)Cc2ccccc2)c1 [compound 1, Compound 1]",IC50,CDK2/cyclin E; read-out: Compound 1,710 nM
same,IC50,CDK1/cyclin E; read-out: Compound 1,14000 nM
same,IC50,CDK5/p35; read-out: Compound 1,40000 nM
same,IC50,CDK9/cyclin K; read-out: Compound 1,3000 nM
